# Paper PMC11233931, “Remodeling tumor‐associated macrophage for anti‐cancer effects by rational design of irreversible inhibition of mitogen‐activated protein kinase‐activated protein kinase 2” (MedComm, 2024)
# Legend:
# Experiment in all cases: Eurofins kinase selectivity profile against 380 other human recombinant kinases (Table S2)
# Assay type in all cases: biochemical
# [1] = target: T1, 380 human recombinant protein kinases (Homo sapiens, UniProt Q92519); conditions: TRB2(h), read-out: Inhibition rate (%)
# T1 construct: purchased Eurofins (Celle Lévescault)
# T1 sequence (Q92519 1-343): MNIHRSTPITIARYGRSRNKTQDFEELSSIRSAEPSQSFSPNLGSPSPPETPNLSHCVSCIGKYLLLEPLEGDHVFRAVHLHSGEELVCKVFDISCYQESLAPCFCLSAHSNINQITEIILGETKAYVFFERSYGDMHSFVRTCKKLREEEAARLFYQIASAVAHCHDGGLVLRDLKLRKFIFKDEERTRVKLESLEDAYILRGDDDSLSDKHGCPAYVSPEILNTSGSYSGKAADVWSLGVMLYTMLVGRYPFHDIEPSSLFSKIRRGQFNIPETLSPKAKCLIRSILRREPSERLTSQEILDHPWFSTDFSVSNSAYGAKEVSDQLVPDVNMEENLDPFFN
# Outline: (§1)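 Profiling against 380 human recombinant kinases carried out by Eurofins at various compound concentrations.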
# [2] = target: T2, 380 human recombinant protein kinases (Homo sapiens, UniProt P48736); conditions: PI3 Kinase (p120γ)(h), read-out: Inhibition rate (%)
# T2 construct: purchased Eurofins (Celle Lévescault)
# Outline: as §1
# [3] = target: T3, 380 human recombinant protein kinases (Homo sapiens, UniProt Q8TD19); conditions: NEK9(h), read-out: Inhibition rate
# T3 construct: purchased Eurofins (Celle Lévescault)
# T3 sequence (Q8TD19 1-979): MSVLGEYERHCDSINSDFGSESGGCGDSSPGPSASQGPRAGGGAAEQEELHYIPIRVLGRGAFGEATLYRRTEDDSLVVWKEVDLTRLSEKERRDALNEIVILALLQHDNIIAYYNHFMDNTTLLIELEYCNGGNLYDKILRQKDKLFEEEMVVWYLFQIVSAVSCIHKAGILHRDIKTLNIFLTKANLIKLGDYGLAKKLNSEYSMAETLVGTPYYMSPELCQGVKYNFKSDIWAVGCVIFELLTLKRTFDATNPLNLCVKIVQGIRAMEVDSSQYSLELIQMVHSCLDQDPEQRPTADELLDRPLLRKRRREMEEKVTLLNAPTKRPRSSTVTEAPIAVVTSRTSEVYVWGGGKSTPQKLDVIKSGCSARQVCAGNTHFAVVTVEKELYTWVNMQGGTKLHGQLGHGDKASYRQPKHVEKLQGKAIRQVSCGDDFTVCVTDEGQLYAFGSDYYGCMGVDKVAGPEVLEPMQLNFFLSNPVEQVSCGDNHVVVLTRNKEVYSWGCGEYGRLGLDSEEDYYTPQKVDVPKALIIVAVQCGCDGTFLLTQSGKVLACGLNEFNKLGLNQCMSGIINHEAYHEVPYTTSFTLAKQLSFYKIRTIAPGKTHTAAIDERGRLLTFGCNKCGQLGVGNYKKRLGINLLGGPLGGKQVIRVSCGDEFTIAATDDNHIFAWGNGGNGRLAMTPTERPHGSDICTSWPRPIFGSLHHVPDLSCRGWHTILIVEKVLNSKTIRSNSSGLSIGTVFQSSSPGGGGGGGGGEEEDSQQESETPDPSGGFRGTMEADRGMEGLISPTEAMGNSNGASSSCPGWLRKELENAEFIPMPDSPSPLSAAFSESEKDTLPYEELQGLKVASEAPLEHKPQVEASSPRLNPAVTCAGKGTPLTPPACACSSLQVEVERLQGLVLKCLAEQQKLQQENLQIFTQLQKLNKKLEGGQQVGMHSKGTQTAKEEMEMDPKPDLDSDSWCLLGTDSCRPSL
# Outline: as §1
# [4] = target: T4, 380 human recombinant protein kinases (Homo sapiens, UniProt P16591); conditions: Fer(h), read-out: Inhibition rate
# T4 construct: purchased Eurofins (Celle Lévescault)
# Outline: as §1
# [5] = target: T5, 380 human recombinant protein kinases (Homo sapiens, UniProt O00311); conditions: Cdc7/cyclinB1(h), read-out: Inhibition rate
# T5 construct: purchased Eurofins (Celle Lévescault)
# Outline: as §1
# [6] = target: T6, 380 human recombinant protein kinases (Homo sapiens, UniProt P07948); conditions: Lyn(h), read-out: Inhibition rate
# T6 construct: purchased Eurofins (Celle Lévescault)
# Outline: as §1
# [7] = target: T7, 380 human recombinant protein kinases (Homo sapiens, UniProt Q6SA08); conditions: TSSK4(h), read-out: Inhibition rate (%)
# T7 construct: purchased Eurofins (Celle Lévescault)
# T7 sequence (Q6SA08 1-328): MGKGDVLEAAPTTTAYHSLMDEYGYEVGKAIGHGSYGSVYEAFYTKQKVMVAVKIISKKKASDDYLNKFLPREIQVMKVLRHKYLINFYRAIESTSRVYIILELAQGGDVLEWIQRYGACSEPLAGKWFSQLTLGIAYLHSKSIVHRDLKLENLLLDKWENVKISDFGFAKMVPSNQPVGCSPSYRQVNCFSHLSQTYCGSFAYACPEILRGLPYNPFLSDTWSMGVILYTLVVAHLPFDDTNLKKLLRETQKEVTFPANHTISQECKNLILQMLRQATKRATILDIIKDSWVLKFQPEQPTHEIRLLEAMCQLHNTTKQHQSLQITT
# Outline: as §1
# T6 sequence (P07948 whole entry): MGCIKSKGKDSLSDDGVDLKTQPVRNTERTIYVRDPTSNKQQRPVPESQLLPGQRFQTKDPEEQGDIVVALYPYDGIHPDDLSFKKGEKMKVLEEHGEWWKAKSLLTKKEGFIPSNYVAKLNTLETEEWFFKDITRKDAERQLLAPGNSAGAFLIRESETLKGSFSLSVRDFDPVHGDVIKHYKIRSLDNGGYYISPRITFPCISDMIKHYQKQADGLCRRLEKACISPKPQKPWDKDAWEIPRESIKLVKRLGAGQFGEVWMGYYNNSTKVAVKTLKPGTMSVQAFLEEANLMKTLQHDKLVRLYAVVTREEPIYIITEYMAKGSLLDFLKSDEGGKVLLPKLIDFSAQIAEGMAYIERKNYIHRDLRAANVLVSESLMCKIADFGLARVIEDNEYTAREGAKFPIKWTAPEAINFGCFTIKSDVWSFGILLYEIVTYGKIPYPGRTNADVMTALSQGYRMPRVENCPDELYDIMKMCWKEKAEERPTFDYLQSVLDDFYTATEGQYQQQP
# T5 sequence (O00311 whole entry): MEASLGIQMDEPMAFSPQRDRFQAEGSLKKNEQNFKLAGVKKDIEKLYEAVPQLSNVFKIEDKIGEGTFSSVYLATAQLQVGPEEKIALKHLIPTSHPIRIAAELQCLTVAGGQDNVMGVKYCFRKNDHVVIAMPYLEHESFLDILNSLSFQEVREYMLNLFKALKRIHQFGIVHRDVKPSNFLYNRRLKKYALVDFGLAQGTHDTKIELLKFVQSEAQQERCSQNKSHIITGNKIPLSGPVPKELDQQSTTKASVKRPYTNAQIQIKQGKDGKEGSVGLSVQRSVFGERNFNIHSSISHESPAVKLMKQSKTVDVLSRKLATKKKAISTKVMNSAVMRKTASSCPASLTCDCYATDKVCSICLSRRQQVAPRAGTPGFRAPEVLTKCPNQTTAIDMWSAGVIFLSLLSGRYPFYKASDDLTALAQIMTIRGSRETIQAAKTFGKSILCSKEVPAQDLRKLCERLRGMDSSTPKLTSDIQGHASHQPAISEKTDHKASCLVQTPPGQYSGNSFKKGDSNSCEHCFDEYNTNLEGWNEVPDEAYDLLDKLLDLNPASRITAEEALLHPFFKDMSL
# T4 sequence (P16591 whole entry): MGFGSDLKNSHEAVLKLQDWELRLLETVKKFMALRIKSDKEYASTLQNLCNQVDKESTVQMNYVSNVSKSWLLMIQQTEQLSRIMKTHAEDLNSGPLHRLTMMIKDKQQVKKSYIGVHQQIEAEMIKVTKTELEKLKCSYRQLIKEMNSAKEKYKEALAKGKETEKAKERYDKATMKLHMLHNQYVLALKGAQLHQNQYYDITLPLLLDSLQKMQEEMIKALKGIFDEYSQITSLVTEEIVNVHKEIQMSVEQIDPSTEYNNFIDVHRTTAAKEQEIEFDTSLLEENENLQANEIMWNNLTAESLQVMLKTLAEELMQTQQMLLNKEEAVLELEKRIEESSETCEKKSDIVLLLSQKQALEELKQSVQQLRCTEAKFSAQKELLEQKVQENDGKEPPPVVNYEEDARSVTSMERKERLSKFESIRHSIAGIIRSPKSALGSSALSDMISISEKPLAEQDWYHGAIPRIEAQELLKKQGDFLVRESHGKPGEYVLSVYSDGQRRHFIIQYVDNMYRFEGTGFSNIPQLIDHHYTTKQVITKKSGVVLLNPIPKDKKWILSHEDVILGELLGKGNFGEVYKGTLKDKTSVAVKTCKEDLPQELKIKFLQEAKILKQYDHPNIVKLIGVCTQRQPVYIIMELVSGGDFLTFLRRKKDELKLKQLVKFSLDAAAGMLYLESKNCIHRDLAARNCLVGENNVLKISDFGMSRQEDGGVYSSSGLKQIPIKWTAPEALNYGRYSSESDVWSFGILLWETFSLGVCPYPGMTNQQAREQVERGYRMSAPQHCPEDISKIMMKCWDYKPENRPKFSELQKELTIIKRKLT
# T2 sequence (P48736 whole entry): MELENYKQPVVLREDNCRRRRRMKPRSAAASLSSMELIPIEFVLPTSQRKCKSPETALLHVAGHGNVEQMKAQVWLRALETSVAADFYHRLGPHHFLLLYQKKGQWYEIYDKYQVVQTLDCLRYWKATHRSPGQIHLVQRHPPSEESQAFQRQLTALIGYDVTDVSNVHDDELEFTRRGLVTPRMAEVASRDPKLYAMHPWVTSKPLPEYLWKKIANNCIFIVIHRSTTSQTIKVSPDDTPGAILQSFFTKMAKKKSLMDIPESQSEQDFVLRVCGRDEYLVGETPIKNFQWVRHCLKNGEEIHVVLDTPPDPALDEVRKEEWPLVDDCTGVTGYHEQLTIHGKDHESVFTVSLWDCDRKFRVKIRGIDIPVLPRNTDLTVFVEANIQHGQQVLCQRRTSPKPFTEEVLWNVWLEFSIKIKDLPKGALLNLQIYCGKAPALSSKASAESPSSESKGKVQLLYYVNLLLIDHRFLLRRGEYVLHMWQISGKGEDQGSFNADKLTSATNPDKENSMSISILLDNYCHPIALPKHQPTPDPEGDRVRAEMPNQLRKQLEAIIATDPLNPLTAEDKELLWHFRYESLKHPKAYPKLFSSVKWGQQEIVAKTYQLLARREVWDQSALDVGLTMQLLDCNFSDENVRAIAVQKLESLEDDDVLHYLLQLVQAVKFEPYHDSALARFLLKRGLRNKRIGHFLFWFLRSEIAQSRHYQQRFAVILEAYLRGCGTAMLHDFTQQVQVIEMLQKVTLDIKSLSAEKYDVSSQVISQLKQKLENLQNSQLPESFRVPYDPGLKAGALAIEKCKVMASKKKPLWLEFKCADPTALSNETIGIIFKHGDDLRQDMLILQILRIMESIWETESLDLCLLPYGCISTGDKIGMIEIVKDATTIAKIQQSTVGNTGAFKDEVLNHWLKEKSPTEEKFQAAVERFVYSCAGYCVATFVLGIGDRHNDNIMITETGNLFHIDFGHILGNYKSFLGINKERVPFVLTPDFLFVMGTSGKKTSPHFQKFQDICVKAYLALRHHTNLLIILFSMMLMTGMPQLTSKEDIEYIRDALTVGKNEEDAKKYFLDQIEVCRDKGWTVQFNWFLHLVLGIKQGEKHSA
compound,measurement,setting,value
C=CC(=O)Nc1cc(-c2cc(-c3cc4c([nH]3)CCNC4=O)ccn2)ccc1OC(F)(F)F [compound 11],inhibition at 0.01 µM,[1]; 10 nM,29%
same,inhibition at 0.1 µM,[1]; 100 nM,58%
same,inhibition at 1 µM,[1]; 1000 nM,85%
same,inhibition at 0.01 µM,[2]; 10 nM,1%
same,inhibition at 0.1 µM,[2]; 100 nM,-1%
same,inhibition at 1 µM,[2]; 1000 nM,3%
same,inhibition at 0.01 µM,[3]; 10 nM,-2%
same,inhibition at 0.1 µM,[3]; 100 nM,-6%
same,inhibition at 1 µM,[3]; 1000 nM,1%
same,inhibition at 0.01 µM,[4]; 10 nM,-11%
same,inhibition at 0.1 µM,[4]; 100 nM,-18%
same,inhibition at 1 µM,[4]; 1000 nM,-11%
same,inhibition at 0.01 µM,[5]; 10 nM,8%
same,inhibition at 0.1 µM,[5]; 100 nM,16%
same,inhibition at 1 µM,[5]; 1000 nM,22%
same,inhibition at 0.01 µM,[6]; 10 nM,-1%
same,inhibition at 0.1 µM,[6]; 100 nM,-11%
same,inhibition at 1 µM,[6]; 1000 nM,-11%
same,inhibition at 0.01 µM,[7]; 10 nM,3%
same,inhibition at 0.1 µM,[7]; 100 nM,5%
same,inhibition at 1 µM,[7]; 1000 nM,2%
